The values below come from patent US10654843B2, “LMP7 inhibitors” (PRINCIPIA BIOPHARMA INC., priority 2014, dated 2020).

Experiment [1] has as its target constitutive proteasome (B5c) (Homo sapiens, UniProt P20618+P28074). In words: Caliper-based proteasome assay, constitutive proteasome chymotrypsin-like activity. It is filed as biochemical. To be noted: human recombinant constitutive proteasome 0.3 nM, FAM-labeled peptide substrate 1 μM, room temperature 3 h. As for the experimental part: (§1) A Caliper-based proteasome assay (Caliper Life Sciences, Hopkinton, Mass.) was used to measure inhibition of the chymotrypsin-like activity of both immunoproteasome (LMP7/B5i) and the constitutive proteasome (B5c) for a compound of Formula (I). Serial dilutions of test compounds were incubated with either human recombinant immunoproteasome or constitutive proteasome (0.3 nM enzyme) and a carboxyfluorescein (FAM)-labeled peptide substrate FAM-TYETFKSIMKKSPF-NH2 (1 μM) at room temperature for 3 h. The reaction buffer was 20 mM Hepes pH 7.4, 0.01% bovine serum albumin, 0.015% SDS, 0.5 mM EDTA, 1% DMSO. The reaction was then terminated with a buffer containing the known proteasome inhibitor carfilzomib at a concentration of 5 uM. The peptide cleavage reaction product was quantified on a Caliper LabChip 3000. Percent inhibition was calculated for each compound dilution and the concentration that produced 50% inhibition was calculated. This value is presented as the IC50.

Experiment [2] has as its target immunoproteasome (LMP7/B5i) (Homo sapiens, UniProt P20618+P28062). In words: Caliper-based proteasome assay, immunoproteasome chymotrypsin-like activity. To be noted: human recombinant immunoproteasome 0.3 nM, FAM-labeled peptide substrate 1 μM, room temperature 3 h. The format is biochemical. How it is done:
as §1

Experiment [3] has as its target T1, proteasome activity in HT-29 cells (Homo sapiens, UniProt P28074).
T1 construct: endogenous in cells; host or cells: HT-29
The experiment in a line: Durability of binding in cells, wash-out assay (Proteasome-Glo), HT-29. The format is cell-based. To be noted: 2 hours incubation, washout. How it is done:
The durability of binding of proteasome inhibitors was assessed in cells using wash-out assays and the Proteasome-Glo™ Reagent kit. THP-1 cells, HT-29 cells, or PBMC were incubated with an 8-fold dilution series of inhibitor for 2 hours. Following 2 hours of incubation, cells were washed using 3 occasions of centrifugation followed by resuspension in culture medium. Following inhibitor washout, cells were returned to culture for either 30 minutes, 4 hours, or 18 hours. Cells were then transferred to white 384 plates, and 20 uL of Proteasome-Glo™ Reagent was added to each well for 10 minutes. Plates were then read on an Analyst HT plate reader using luminescence mode. The percent inhibition of activity was plotted as a function of log compound concentration. The IC50 was then calculated for each compound using Prism software from GraphPad.

The target in experiment [4] is T2, proteasome activity in primary human peripheral blood mononuclear cells (PBMC) (Homo sapiens, UniProt P28062).
T2 construct: endogenous in cells; host or cells: primary human PBMC
In words: Inhibition of proteasome activity in cells (Proteasome-Glo), PBMC. The format is cell-based. To be noted: 2 hr incubation, Suc-LLVY-aminoluciferin. How it is done:
(§2) The cell-based effects of the compound of the present disclosure on immunoproteasome were determined by measuring inhibition of proteasome activity in cells using the Proteasome-Glo™ Cell-Based Reagent (Promega, Madison Wis). The Proteasome-Glo™ assay contains a specific luminogenic proteasome substrate in a buffer optimized for cell permeabilization, proteasome activity, and luciferase activity. For the chymotrypsin-like activity, the peptide substrate is Suc-LLVY-aminoluciferin (Succinyl-leucine-leucine-valine-tyrosine-aminoluciferin). Cleavage of the substrate by proteasome results in luminescent signal which is proportional to the proteasome activity. The cell line THP-1 (a monocytic leukemia cell line enriched in immunoproteasome), the cell line HT-29 (a colorectal adenocarcinoma cell line enriched in constitutive proteasome), and primary human peripheral blood mononuclear cells (PBMC) were used to assess proteasome activity. Cells were seeded in a 96-well plate at 10,000 cells per well in RPMI 1640 high glucose medium with 10% fetal bovine serum (FBS). Compound dilutions were added to cells starting at a concentration of 5 uM and decreasing in tripling dilutions. The final DMSO concentration was 1%. The concentration range was adjusted as needed for compounds of different potencies. The cells treated with compounds were incubated for 2 hr at 37° C. in 5% CO2. At the end of the 2 hour incubation period, cells were transferred to white 384 well assay plates. 20 uL of Proteasome-Glo™ Reagent was added to each well and incubated for 10 minutes at room temperature. The plate was read in the Analyst HT instrument (Molecular Devices, Sunnyvale, Calif.) using luminescence mode. The percent inhibition of activity was plotted as a function of log compound concentration. The IC50 was then calculated for each compound using Prism software from GraphPad Software Inc. (San Diego, Calif).

Experiment [5] concerns the target T3, proteasome activity in HT-29 cells (enriched in constitutive proteasome) (Homo sapiens, UniProt P28074).
T3 construct: endogenous in cells; host or cells: HT-29
In words: Inhibition of proteasome activity in cells (Proteasome-Glo), HT-29. The note with it: 2 hr incubation, Suc-LLVY-aminoluciferin, read-out: HT29 IC50. It is filed as cell-based. How it is done:
as §2

Where [6] appears, read: 30 minutes in culture, read-out: HT29 (30 min) IC50.
[7] abbreviates: 4 hours in culture, read-out: HT29 (4 h) IC50.

Read-outs that look alike come from different tables or passages of the source. Where only a bound is given, the exact number is not on record here.

Take `Cc1ccc(CNC(=O)[C@H](COc2cccc(C=C(C#N)C(=O)N(C)C)c2)NC(=O)[C@@H](NC(=O)c2cc(C)on2)[C@@H](C)O)cc1` [Example 1, N-((2S,3R)-1-(((S)-3-(3-(2-cyano-3-(dimethylamino)-3-oxoprop-1-en-1-yl)phenoxy)-1-((4-methylbenzyl)amino)-1-oxopropan-2-yl)amino)-3-hydroxy-1-oxobutan-2-yl)-5-methylisoxazole-3-carboxamide]: the IC50 in experiment [1] turned out to be 274 nM; in experiment [2] it was 31 nM.

For `Cc1ccc(CNC(=O)[C@H](COc2cccc(C=C(C#N)C(=O)NC(C)(C)C)c2)NC(=O)[C@@H](NC(=O)c2cc(C)on2)[C@@H](C)O)c(F)c1` [Example 7, N-((2S,3R)-1-(((S)-3-(3-(3-(tert-butylamino)-2-cyano-3-oxoprop-1-en-1-yl)phenoxy)-1-((2-fluoro-4-methylbenzyl)amino)-1-oxopropan-2-yl)amino)-3-hydroxy-1-oxobutan-2-yl)-5-methylisoxazole-3-carboxamide], the half-inhibitory concentration (IC50) in experiment [1] was 2140 nM; in experiment [2] it was 11 nM.

`Cc1ccc(CNC(=O)[C@H](COc2cccc(C=C(C#N)n3cncn3)c2)NC(=O)[C@@H](NC(=O)c2cc(C)on2)[C@@H](C)O)cc1` [Example 8a, N-((2S,3R)-1-(((S)-3-(3-(2-cyano-2-(1H-1,2,4-triazol-1-yl)vinyl)phenoxy)-1-((4-methylbenzyl)amino)-1-oxopropan-2-yl)amino)-3-hydroxy-1-oxobutan-2-yl)-5-methylisoxazole-3-carboxamide]: the IC50 in experiment [3] (setting [6]) was 580 nM; in experiment [3] (setting [7]) it was greater than 5000 nM; in experiment [1], 120 nM; in experiment [4], 10 nM; in experiment [5], 200 nM; in experiment [2], 17 nM.

With `Cc1ccc(CNC(=O)[C@H](CCc2cccc(C=C(C#N)C(=O)N(C)C)c2)NC(=O)[C@@H](NC(=O)c2cc(C)on2)[C@@H](C)O)cc1` [Example 15, N-((2S,3R)-1-(((S)-4-(3-(2-cyano-3-(dimethylamino)-3-oxoprop-1-en-1-yl)phenyl)-1-((4-methylbenzyl)amino)-1-oxobutan-2-yl)amino)-3-hydroxy-1-oxobutan-2-yl)-5-methylisoxazole-3-carboxamide], the IC50 in experiment [3] (setting [6]) was greater than 5000 nM; in experiment [3] (setting [7]) it was greater than 5000 nM; in experiment [1], 61 nM; in experiment [4] it was 13 nM; in experiment [5], 84 nM; in experiment [2] it was 20 nM.

Regarding `Cc1ccc(CNC(=O)[C@H](CCCCNC(=O)C(C#N)=CC(C)C)NC(=O)[C@@H](NC(=O)c2cc(C)on2)[C@@H](C)O)cc1` [Example 21, N-((2S,3R)-1-(((S)-6-(2-cyano-4-methylpent-2-enamido)-1-((4-methylbenzyl)-amino)-1-oxohexan-2-yl)amino)-3-hydroxy-1-oxobutan-2-yl)-5-methylisoxazole-3-carboxamide], the IC50 in experiment [3] (setting [6]) is greater than 5000 nM; in experiment [1] it was 143 nM; in experiment [4], 23 nM; in experiment [5] it was 646 nM; in experiment [2] it was 5 nM.

Take `Cc1ccc(CNC(=O)[C@H](CCCCNC(=O)C(C#N)=CC(C)(C)C)NC(=O)[C@@H](C)NC(=O)c2cc(C)on2)cc1` [Example 21d, N—((R)-1-(((S)-6-(2-cyano-4,4-dimethylpent-2-enamido)-1-((4-methylbenzyl)amino)-1-oxohexan-2-yl)amino)-1-oxopropan-2-yl)-5-methylisoxazole-3-carboxamide]: the values for the IC50 in experiment [1] and in experiment [2] were 3950 nM and 144 nM, respectively.

For `Cc1ccc(CNC(=O)[C@H](CCCCN(C)C(=O)C(C#N)=CC(C)C)NC(=O)[C@@H](NC(=O)c2cc(C)on2)[C@@H](C)O)cc1` [Example 22, N-((2S,3R)-1-(((S)-6-(2-cyano-N,4-dimethylpent-2-enamido)-1-((4-methylbenzyl)-amino)-1-oxohexan-2-yl)amino)-3-hydroxy-1-oxobutan-2-yl)-5-methylisoxazole-3-carboxamide], the IC50 in experiment [1] worked out at 704 nM; in experiment [2], 37 nM.

On to `Cc1ccc(CNC(=O)[C@H](Cc2cccc(NC(=O)C(C#N)=CC(C)C)c2)NC(=O)[C@@H](NC(=O)c2cc(C)on2)[C@@H](C)O)cc1` [Example 24, N-((2S,3R)-1-(((S)-3-(3-(2-cyano-4-methylpent-2-enamido)phenyl)-1-((4-methyl-benzyl)amino)-1-oxopropan-2-yl)amino)-3-hydroxy-1-oxobutan-2-yl)-5-methylisoxazole-3-carboxamide], for which the results for the half-inhibitory concentration (IC50) in experiment [1] and in experiment [2] were 3210 nM and 64 nM, respectively.

Regarding `Cc1ccc(CNC(=O)[C@H](Cc2cccc(N(C)C(=O)C(C#N)=CC(C)C)c2)NC(=O)[C@@H](NC(=O)c2cc(C)on2)[C@@H](C)O)cc1` [Example 25, N-((2S,3R)-1-(((S)-3-(3-(2-cyano-N,4-dimethylpent-2-enamido)phenyl)-1-((4-methylbenzyl)amino)-1-oxopropan-2-yl)amino)-3-hydroxy-1-oxobutan-2-yl)-5-methylisoxazole-3-carboxamide], the half-maximal inhibitory concentration (IC50) in experiment [3] (setting [6]) is greater than 5000 nM; in experiment [3] (setting [7]), greater than 5000 nM; in experiment [1] it was 1450 nM; in experiment [4], 15 nM; in experiment [5], 1180 nM; in experiment [2] it was 29 nM.

`Cc1ccc(CNC(=O)[C@H](Cc2cccc(N(C)C(=O)C(C#N)=CC(C)C)c2)NC(=O)[C@@H](NC(=O)c2cc(C)on2)[C@@H](C)O)c(F)c1` [Example 27, N-((2S,3R)-1-(((S)-3-(3-(2-cyano-N,4-dimethylpent-2-enamido)phenyl)-1-((2-fluoro-4-methylbenzyl)amino)-1-oxopropan-2-yl)amino)-3-hydroxy-1-oxobutan-2-yl)-5-methylisoxazole-3-carboxamide]: the IC50 in experiment [3] (setting [6]) was 3800 nM; in experiment [3] (setting [7]) it was greater than 5000 nM; in experiment [1], 147 nM; in experiment [4] it was 13 nM; in experiment [5] it was 360 nM; in experiment [2], 21 nM.

As to `Cc1ccc(CNC(=O)[C@H](CC2CCN(C(=O)C(C#N)=CC(C)C)CC2)NC(=O)[C@@H](NC(=O)c2cc(C)on2)[C@@H](C)O)cc1` [Example 29, N-((2S,3R)-1-(((S)-3-(1-(2-cyano-4-methylpent-2-enoyl)piperidin-4-yl)-1-((4-methylbenzyl)amino)-1-oxopropan-2-yl)amino)-3-hydroxy-1-oxobutan-2-yl)-5-methylisoxazole-3-carboxamide], the concentration for half-maximal inhibition (IC50) came out at 788 nM in experiment [1] and 103 nM in experiment [2].
